This experiment has as its target T1, human LPA1 (Homo sapiens, UniProt Q92633).
T1 construct: the full-length cDNA for human LPA1 was obtained by PCR of the reverse transcription reaction; expressed in transfected cells
Description: LPA1 calcium flux assay. It is filed as cell-based. The note with it: CHO cells expressing human LPA1, stimulated with 10 nM LPA; read-out: HLPA1 Ca Flux IC50. Summed up: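 Antagonism measured as block of 10 nM LPA-evoked calcium rise in stable human LPA1-CHO cells. After overnight serum-free culture and 1 h dye loading at 37 °C (buffer with 0.3% fatty-acid-free albumin), compound was added for 30 min at room temperature. Titration curves gave IC50.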

Each structure is given as a SMILES string.

Here are results for 31 molecules from US9624182B2, “Compounds as lysophosphatidic acid receptor antagonists” (Amira Pharmaceuticals, Inc., priority 2009, dated 2017).

As a reminder, the IC50 is the concentration that gives 50% inhibition.

T1 sequence (Q92633 whole entry): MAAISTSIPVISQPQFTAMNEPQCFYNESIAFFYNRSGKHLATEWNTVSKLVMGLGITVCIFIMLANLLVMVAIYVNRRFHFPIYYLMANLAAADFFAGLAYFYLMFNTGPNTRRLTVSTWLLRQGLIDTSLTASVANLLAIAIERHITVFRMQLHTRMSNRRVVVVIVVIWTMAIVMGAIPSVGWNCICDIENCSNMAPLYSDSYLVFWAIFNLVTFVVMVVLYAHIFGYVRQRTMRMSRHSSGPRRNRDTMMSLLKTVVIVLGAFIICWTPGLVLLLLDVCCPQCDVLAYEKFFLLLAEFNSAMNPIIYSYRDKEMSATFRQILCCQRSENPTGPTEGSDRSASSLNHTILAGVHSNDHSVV

Consider `CC(C)=CCCC(C)Nc1c(C)noc1-c1ccc(-c2ccc(C3(CC(=O)O)CC3)cc2)cc1` (stereo not shown) [Compound 1-204, (1-{4′-[4-(1,5-Dimethyl-hex-4-enylamino)-3-methyl-isoxazol-5-yl]-biphenyl-4-yl}-cyclopropyl)-acetic acid], for which the IC50 is less than 0.3 µM.

On to `CC(C)=CCCC(C)Nc1c(C)noc1-c1ccc(-c2ccc(C3(C(=O)O)CC3)cc2)cc1` (stereo not shown) [Compound 1-205, 1-{4′-[4-(1,5-Dimethyl-hex-4-enylamino)-3-methyl-isoxazol-5-yl]-biphenyl-4-yl}-cyclopropanecarboxylic acid], for which the IC50 was less than 0.3 µM.

As for `Cc1noc(-c2ccc(-c3ccc(C4(CC(=O)O)CC4)cc3)cc2)c1NC(C)c1ccc2ccccc2c1` (stereo not shown) [Compound 1-206, (1-{4′-[3-Methyl-4-(1-naphthalen-2-yl-ethylamino)-isoxazol-5-yl]-biphenyl-4-yl}-cyclopropyl)-acetic acid], the half-maximal inhibitory concentration (IC50) was less than 0.3 µM.

As for `Cc1noc(-c2ccc(-c3ccc(C4(CC(=O)O)CC4)cc3)cc2)c1C(O)CCCCc1ccccc1` (stereo not shown) [Compound 1-207, (1-{4′-[4-(1-Hydroxy-5-phenyl-pentyl)-3-methyl-isoxazol-5-yl]-biphenyl-4-yl}-cyclopropyl)-acetic acid], the IC50 is less than 0.3 µM.

For the molecule `Cc1noc(-c2ccc(-c3ccc(C4(CC(=O)O)CC4)cc3)cc2)c1C(O)CCCCc1ccc(Cl)c(Cl)c1` (stereo not shown) [Compound 1-208, [1-(4′-{4-[5-(3,4-Dichloro-phenyl)-1-hydroxy-pentyl]-3-methyl-isoxazol-5-yl}-biphenyl-4-yl)-cyclopropyl]-acetic acid], the IC50 is less than 0.3 µM.

For the molecule `COc1ccc(CCC(C)Nc2c(C)noc2-c2ccc(-c3ccc(C4(CC(=O)O)CC4)cc3)cc2)cc1` (stereo not shown) [Compound 1-211, [1-(4′-{4-[3-(4-Methoxy-phenyl)-1-methyl-propylamino]-3-methyl-isoxazol-5-yl}-biphenyl-4-yl)-cyclopropyl]-acetic acid], the IC50 lay within 0.3 to 1 µM.

With `Cc1noc(-c2ccc(-c3ccc(C4(C(=O)O)CC4)cc3)cc2)c1Nc1ncnc2scc(C)c12` [Compound 1-212, 1-{4′-[3-Methyl-4-(5-methyl-thieno[2,3-d]pyrimidin-4-ylamino)-isoxazol-5-yl]-biphenyl-4-yl}-cyclopropanecarboxylic acid], the half-inhibitory concentration (IC50) lay within 1 to 50 µM.

Turning to `Cc1noc(-c2ccc(-c3ccc(C4(CC(=O)O)CC4)cc3)cc2)c1NC(CCc1ccccc1)c1ccccc1` (stereo not shown) [Compound 1-213, (1-{4′-[4-(1,3-Diphenyl-propylamino)-3-methyl-isoxazol-5-yl]-biphenyl-4-yl}-cyclopropyl)-acetic acid], the IC50 was in the range of 0.3 to 1 µM.

Take `Cc1noc(-c2ccc(-c3ccc(C4(C(=O)O)CC4)cc3)cc2)c1NC(CCc1ccccc1)c1ccccc1` (stereo not shown) [Compound 1-214, 1-{4′-[4-(1,3-Diphenyl-propylamino)-3-methyl-isoxazol-5-yl]-biphenyl-4-yl}-cyclopropanecarboxylic acid]: the half-inhibitory concentration (IC50) lay within 0.3 to 1 µM.

Consider `Cc1noc(-c2ccc(-c3ccc(C4CC4C(=O)O)cc3)cc2)c1[C@@H](O)COCc1ccccc1` (stereo partly drawn) [Compound 1-215, (cis)-2-{4′-[4-((R)-2-Benzyloxy-1-hydroxy-ethyl)-3-methyl-isoxazol-5-yl]-biphenyl-4-yl}-cyclopropanecarboxylic acid], for which the concentration for half-maximal inhibition (IC50) was less than 0.3 µM.

Consider `Cc1noc(-c2ccc(-c3ccc(C4(CC(=O)O)CC4)cc3)cc2)c1NC(C)CCc1ccc(Cl)cc1` (stereo not shown) [Compound 1-218, [1-(4′-{4-[3-(4-Chloro-phenyl)-1-methyl-propylamino]-3-methyl-isoxazol-5-yl}-biphenyl-4-yl)-cyclopropyl]-acetic acid], for which the concentration for half-maximal inhibition (IC50) is less than 0.3 µM.

For `Cc1noc(-c2ccc(-c3ccc(C4(CC(=O)O)CC4)cc3)cc2)c1NC(C)CCc1c(F)cccc1Cl` (stereo not shown) [Compound 1-219, [1-(4′-{4-[3-(2-Chloro-6-fluoro-phenyl)-1-methyl-propylamino]-3-methyl-isoxazol-5-yl}-biphenyl-4-yl)-cyclopropyl]-acetic acid], the IC50 was less than 0.3 µM.

For `Cc1noc(-c2ccc(-c3ccc(C4(CC(=O)O)CC4)cc3)cc2)c1NC(C)CCc1ccccc1Cl` (stereo not shown) [Compound 1-222, [1-(4′-{4-[3-(2-Chloro-phenyl)-1-methyl-propylamino]-3-methyl-isoxazol-5-yl}-biphenyl-4-yl)-cyclopropyl]-acetic acid], the IC50 was less than 0.3 µM.

On to `C=CCCC(C)Nc1c(C)noc1-c1ccc(-c2ccc(C3(CC(=O)O)CC3)cc2)cc1` (stereo not shown) [Compound 1-226, (1-{4′-[3-Methyl-4-(1-methyl-pent-4-enylamino)-isoxazol-5-yl]-biphenyl-4-yl}-cyclopropyl)-acetic acid], for which the IC50 fell in the range of 0.3 to 1 µM.

With `C=CCCC(C)Nc1c(C)noc1-c1ccc(-c2ccc(C3(C(=O)O)CC3)cc2)cc1` (stereo not shown) [Compound 1-227, 1-{4′-[3-Methyl-4-(1-methyl-pent-4-enylamino)-isoxazol-5-yl]-biphenyl-4-yl}-cyclopropanecarboxylic acid], the half-inhibitory concentration (IC50) is less than 0.3 µM.

With `C=CCCC(C)Nc1c(C)noc1-c1ccc(-c2ccccc2CC(=O)O)cc1` (stereo not shown) [Compound 1-228, {4′-[3-Methyl-4-(1-methyl-pent-4-enylamino)-isoxazol-5-yl]-biphenyl-2-yl}-acetic acid], the IC50 was in the range of 1 to 50 µM.

For `Cc1noc(-c2ccc(-c3ccc(C4(CC(=O)O)CC4)cc3)cc2)c1NC(C)CCCO` (stereo not shown) [Compound 1-229, (1-{4′-[4-(4-Hydroxy-1-methyl-butylamino)-3-methyl-isoxazol-5-yl]-biphenyl-4-yl}-cyclopropyl)-acetic acid], the IC50 is greater than 50 µM.

On to `Cc1noc(-c2ccc(-c3ccc(C4(C(=O)O)CC4)cc3)cc2)c1NC(C)CCCO` (stereo not shown) [Compound 1-230, 1-{4′-[4-(4-Hydroxy-1-methyl-butylamino)-3-methyl-isoxazol-5-yl]-biphenyl-4-yl}-cyclopropanecarboxylic acid], for which the IC50 fell in the range of 1 to 50 µM.

As for `Cc1noc(-c2ccc(-c3ccccc3CC(=O)O)cc2)c1NC(C)CCCO` (stereo not shown) [Compound 1-231, {4′-[4-(4-Hydroxy-1-methyl-butylamino)-3-methyl-isoxazol-5-yl]-biphenyl-2-yl}-acetic acid], the 50% inhibitory concentration (IC50) is 1 to 50 µM.

With `Cc1noc(-c2ccc(-c3ccccc3CC(=O)O)cc2)c1NC(C)CCc1ccc2c(c1)OCO2` (stereo not shown) [Compound 1-232, {4′-[4-(3-Benzo[1,3]dioxol-5-yl-1-methyl-propylamino)-3-methyl-isoxazol-5-yl]-biphenyl-2-yl}-acetic acid], the IC50 is greater than 50 µM.

For `Cc1noc(-c2ccc(-c3ccc(C4(CC(=O)O)CC4)cc3)cc2)c1NC(C)CCc1ccc2c(c1)OCO2` (stereo not shown) [Compound 1-233, (1-{4′-[4-(3-Benzo[1,3]dioxol-5-yl-1-methyl-propylamino)-3-methyl-isoxazol-5-yl]-biphenyl-4-yl}-cyclopropyl)-acetic acid], the IC50 was less than 0.3 µM.

Take `COc1ccc(CC(C)Nc2c(C)noc2-c2ccc(-c3ccc(C4(CC(=O)O)CC4)cc3)cc2)cc1` (stereo not shown) [Compound 1-236, [1-(4′-{4-[2-(4-Methoxy-phenyl)-1-methyl-ethylamino]-3-methyl-isoxazol-5-yl}-biphenyl-4-yl)-cyclopropyl]-acetic acid]: the IC50 lay within 1 to 50 µM.

Turning to `COc1ccc(CC(C)Nc2c(C)noc2-c2ccc(-c3ccc(C4(C(=O)O)CC4)cc3)cc2)cc1` (stereo not shown) [Compound 1-237], the IC50 is 1 to 50 µM.

For the molecule `COc1ccc(CC(C)Nc2c(C)noc2-c2ccc(-c3ccccc3CC(=O)O)cc2)cc1` (stereo not shown) [Compound 1-238, (4′-{4-[2-(4-Methoxy-phenyl)-1-methyl-ethylamino]-3-methyl-isoxazol-5-yl}-biphenyl-2-yl)-acetic acid], the IC50 lay in the range of 1 to 50 µM.

As to `Cc1noc(-c2ccc(-c3ccc(CC(=O)O)cc3)cc2)c1C(O)COCc1cccc(C(F)(F)F)c1` (stereo not shown) [Compound 1-241, (4′-{4-[1-Hydroxy-2-(3-trifluoromethyl-benzyloxy)-ethyl]-3-methyl-isoxazol-5-yl}-biphenyl-4-yl)-acetic acid], the half-maximal inhibitory concentration (IC50) was in the range of 1 to 50 µM.

Consider `Cc1noc(-c2ccc(-c3ccc(CCC(=O)O)cc3)cc2)c1C(O)COCc1cccc(C(F)(F)F)c1` (stereo not shown) [Compound 1-242, 3-(4′-{4-[1-Hydroxy-2-(3-trifluoromethyl-benzyloxy)-ethyl]-3-methyl-isoxazol-5-yl}-biphenyl-4-yl)-propionic acid], for which the IC50 was 0.3 to 1 µM.

Turning to `Cc1noc(-c2ccc(-c3ccc(C4(CC(=O)O)CC4)cc3)cc2)c1C(O)COCc1cccc(C(F)(F)F)c1` (stereo not shown) [Compound 1-244, [1-(4′-{4-[1-Hydroxy-2-(3-trifluoromethyl-benzyloxy)-ethyl]-3-methyl-isoxazol-5-yl}-biphenyl-4-yl)-cyclopropyl]-acetic acid], the IC50 was less than 0.3 µM.

On to `Cc1noc(-c2ccc(-c3ccc(C(=O)CCC(=O)O)cc3)cc2)c1C(O)CCCc1ccccc1` (stereo not shown) [Compound 1-245, 4-{4′-[4-(1-Hydroxy-4-phenyl-butyl)-3-methyl-isoxazol-5-yl]-biphenyl-4-yl}-4-oxo-butyric acid], for which the IC50 fell in the range of 1 to 50 µM.

`Cc1noc(-c2ccc(-c3ccc(C4(CC(=O)O)CC4)cc3)cc2)c1C(O)CC(C)(C)c1ccccc1` (stereo not shown) [Compound 1-246, (1-{4′-[4-(1-Hydroxy-3-methyl-3-phenyl-butyl)-3-methyl-isoxazol-5-yl]-biphenyl-4-yl}-cyclopropyl)-acetic acid]: the IC50 lay in the range of 1 to 50 µM.

Take `COc1ccc(CCC(O)c2c(C)noc2-c2ccc(-c3ccc(C4(CC(=O)O)CC4)cc3)cc2)cc1` (stereo not shown) [Compound 1-247, [1-(4′-{4-[1-Hydroxy-3-(4-methoxy-phenyl)-propyl]-3-methyl-isoxazol-5-yl}-biphenyl-4-yl)-cyclopropyl]-acetic acid]: the IC50 was in the range of 1 to 50 µM.

Regarding `Cc1noc(-c2ccc(-c3ccc(C4(C(=O)O)CC4)cc3)cc2)c1C(O)C(=O)NCCc1ccccc1` (stereo not shown) [Compound 1-249, 1-{4′-[4-(Hydroxy-phenethylcarbamoyl-methyl)-3-methyl-isoxazol-5-yl]-biphenyl-4-yl}-cyclopropanecarboxylic acid], the IC50 was less than 0.3 µM.
